Measurements published in PubChem BioAssay (NCI).
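Growth conditions: 96-well plates. Treatment: test compound, 48 hours, 5 concentrations. Analysis: linear interpolation between bracketing concentrations; unreached endpoints set to highest concentration. At the GI50, growth is halved. TGI marks complete inhibition of growth.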

Key:
Assay in all cases: DTP human tumour cell line panel, 48 h
[1] = system: CAKI-1 renal
[2] = system: RXF 393 renal
[3] = system: OVCAR-8 ovarian
[4] = system: HCT-116 colon
[5] = system: PC-3 prostate
[6] = system: OVCAR-3 ovarian
[7] = system: SK-MEL-2 melanoma
[8] = system: SF-539 CNS
[9] = system: DU-145 prostate
[10] = system: SNB-75 CNS
[11] = system: SF-295 CNS
[12] = system: T-47D breast
[13] = system: SN12C renal
[14] = system: UO-31 renal
[15] = system: MDA-MB-231 breast
[16] = system: KM12 colon
[17] = system: RPMI-8226 leukemia
[18] = system: SW-620 colon
[19] = system: HCC-2998 colon
[20] = system: HL-60(TB) leukemia
[21] = system: EKVX NSCLC
[22] = system: M14 melanoma
[23] = system: MALME-3M melanoma
[24] = system: HCT-15 colon
[25] = system: MOLT-4 leukemia
[26] = system: A498 renal
[27] = system: UACC-62 melanoma
[28] = system: CCRF-CEM leukemia
[29] = system: NCI-H460 lung
[30] = system: HS 578T breast
[31] = system: MDA-MB-468 breast
[32] = system: OVCAR-5 ovarian
[33] = system: UACC-257 melanoma
[34] = system: SK-MEL-5 melanoma
[35] = system: NCI/ADR-RES ovarian
[36] = system: 786-0 renal
[37] = system: MDA-MB-435
[38] = system: HOP-62 NSCLC
[39] = system: SK-MEL-28 melanoma
[40] = system: HT29 colon
[41] = system: SK-OV-3 ovarian
[42] = system: A549 NSCLC
[43] = system: ACHN renal
[44] = system: BT-549 breast
[45] = system: TK-10 renal
[46] = system: SNB-19 CNS
[47] = system: MCF7 breast
[48] = system: LOX IMVI melanoma
[49] = system: SR leukemia
[50] = system: SF-268 CNS
[51] = system: U251 CNS
[52] = system: NCI-H522 lung
[53] = system: COLO 205 colon
[54] = system: NCI-H226 lung
[55] = system: HOP-92 NSCLC
[56] = system: IGROV1 ovarian
[57] = system: K-562 leukemia
[58] = system: OVCAR-4 ovarian
[59] = system: NCI-H23 lung

SMILES: O=C1c2c(c3c4cc(F)ccc4oc3c3[nH]c4ccc(Br)cc4c23)C(=O)N1O
- GI50 [1]: 1.34 µM
- TGI [1]: > 100 µM
- GI50 [2]: 3.76 µM
- TGI [2]: 32.8 µM
- GI50 [3]: 1.47 µM
- TGI [3]: > 100 µM
- GI50 [4]: 2.09 µM
- TGI [4]: > 100 µM
- GI50 [5]: 0.926 µM
- TGI [5]: > 100 µM
- GI50 [6]: 45 µM
- TGI [6]: > 100 µM
- GI50 [7]: 18.6 µM
- TGI [7]: 45.4 µM
- GI50 [8]: 0.381 µM
- TGI [8]: 4.34 µM
- GI50 [9]: 0.735 µM
- TGI [9]: > 100 µM
- GI50 [10]: 0.656 µM
- TGI [10]: 8.39 µM
- GI50 [11]: 1.24 µM
- TGI [11]: > 46.4 µM
- GI50 [12]: 3.22 µM
- TGI [12]: > 100 µM
- GI50 [13]: 0.473 µM
- TGI [13]: > 100 µM
- GI50 [14]: 0.439 µM
- TGI [14]: > 100 µM
- GI50 [15]: 4.99 µM
- TGI [15]: 64.3 µM
- GI50 [16]: 5.89 µM
- TGI [16]: > 100 µM
- GI50 [17]: 1.86 µM
- TGI [17]: > 100 µM
- GI50 [18]: 0.477 µM
- TGI [18]: > 100 µM
- GI50 [19]: 11.5 µM
- TGI [19]: > 100 µM
- GI50 [20]: 6.07 µM
- TGI [20]: > 100 µM
- GI50 [21]: 25.8 µM
- TGI [21]: > 100 µM
- GI50 [22]: 0.542 µM
- TGI [22]: > 100 µM
- GI50 [23]: 2.5 µM
- TGI [23]: 16.1 µM
- GI50 [24]: 3.57 µM
- TGI [24]: > 100 µM
- GI50 [25]: 0.505 µM
- TGI [25]: > 100 µM
- GI50 [26]: 26.6 µM
- TGI [26]: 70.9 µM
- GI50 [27]: 0.799 µM
- TGI [27]: 14.6 µM
- GI50 [28]: 0.193 µM
- TGI [28]: > 100 µM
- GI50 [29]: 0.393 µM
- TGI [29]: > 100 µM
- GI50 [30]: 2.42 µM
- TGI [30]: > 34.9 µM
- GI50 [31]: 3.45 µM
- TGI [31]: 23 µM
- GI50 [32]: > 100 µM
- TGI [32]: > 100 µM
- GI50 [33]: > 100 µM
- TGI [33]: > 100 µM
- GI50 [34]: 1.42 µM
- TGI [34]: 15 µM
- GI50 [35]: 0.578 µM
- TGI [35]: > 100 µM
- GI50 [36]: 3.84 µM
- TGI [36]: > 50.6 µM
- GI50 [37]: 4.91 µM
- TGI [37]: > 100 µM
- GI50 [38]: 0.833 µM
- TGI [38]: > 57.8 µM
- GI50 [39]: 5.84 µM
- TGI [39]: > 100 µM
- GI50 [40]: 6.86 µM
- TGI [40]: > 100 µM
- GI50 [41]: 3.72 µM
- TGI [41]: 37.6 µM
- GI50 [42]: > 52.1 µM
- TGI [42]: > 100 µM
- GI50 [43]: 0.372 µM
- TGI [43]: 13.3 µM
- GI50 [44]: 1.84 µM
- TGI [44]: > 100 µM
- GI50 [45]: 24.9 µM
- TGI [45]: 72.5 µM
- GI50 [46]: 0.678 µM
- TGI [46]: > 79.9 µM
- GI50 [47]: 0.488 µM
- TGI [47]: > 100 µM
- GI50 [48]: 0.227 µM
- TGI [48]: 1.4 µM
- GI50 [49]: 0.131 µM
- TGI [49]: > 100 µM
- GI50 [50]: 0.844 µM
- TGI [50]: > 100 µM
- GI50 [51]: 0.641 µM
- TGI [51]: > 100 µM
- GI50 [52]: 0.286 µM
- TGI [52]: 5.82 µM
- GI50 [53]: > 33 µM
- TGI [53]: > 100 µM
- GI50 [54]: 8.35 µM
- TGI [54]: > 100 µM
- GI50 [55]: 2.35 µM
- TGI [55]: 13.2 µM
- GI50 [56]: 1.05 µM
- TGI [56]: > 100 µM
- TGI [57]: > 100 µM
- GI50 [58]: > 100 µM
- TGI [58]: > 100 µM
- GI50 [59]: 0.471 µM
- TGI [59]: 11.7 µM
